Source: patent publication US5003011A, “Therapeutic decapeptides” (The Administrators of the Tulane Educational Fund, priority 1989, dated 1991)
Numbered stars: 1 amine (or outer) side, 2 acyl side, 3 side chain; on linkers, the order of the positions; unused ones are H or OH. Square brackets hold non-standard residues; d marks the D form. Peptide text beside a SMILES is read from it. X1 = O=C([C@@H](CCCCNC1CCCC1)N[*:1])[*:2]; X2 = O=C([C@H](CCCCNC1CCCC1)N[*:1])[*:2]; d2Nal = N[C@H](Cc1ccc2ccccc2c1)C(=O)O

Experiment: Body weight ratio (FBW/IBW) in the MCF-7 subrenal capsule assay
Type: in vivo, mice
Source text: Female CDF-1 mice were implanted with a human mammary tumor (MCF-7) underneath the kidney capsules on day 0. […] The negative control group received vehicle only and the positive control was ovariectomized on day 0.

[1] = Table 2, 100 μg/inj. s.c., QDO5

CC(C)C[C@H](NC(=O)[C@@H](Cc1c[nH]c2ccccc12)NC(=O)[C@H](Cc1ccc(O)cc1)NC(=O)[C@H](CO)NC(=O)[C@H](Cc1c[nH]c2ccccc12)NC(=O)[C@H](Cc1c[nH]cn1)NC(=O)[C@@H]1CCC(=O)N1)C(=O)N[C@@H](CCCNC(=N)N)C(=O)N1CCC[C@H]1C(=O)NCC(N)=O [BIM-21003, reference compound]
FBW/IBW = Final Body Weight/Initial Body Weight [1]: 1.04

CC(=O)N[C@H](Cc1ccc2ccccc2c1)C(=O)N[C@H](Cc1ccc(Cl)cc1)C(=O)N[C@H](Cc1c[nH]c2ccccc12)C(=O)N[C@@H](CO)C(=O)N[C@@H](Cc1ccc(O)cc1)C(=O)N[C@H](CCCNC(=N)N)C(=O)N[C@@H](Cc1ccccc1)C(=O)N[C@@H](CCCNC(=N)N)C(=O)N1CCC[C@H]1C(=O)N[C@H](C)C(N)=O [BIM-21023] (HELM PEPTIDE1{[ac].[O=C([C@@H](Cc1ccc2ccccc2c1)N[*:1])[*:2]].[O=C([C@@H](Cc1ccc(Cl)cc1)N[*:1])[*:2]].[dW].S.Y.[dR].F.R.P.[dA].[am]}$$$$V2.0)
FBW/IBW = Final Body Weight/Initial Body Weight (Table 3, 25 μg/inj. s.c., QDO5): 1.01

CC(C)[C@@H]1NC(=O)[C@H](CCCCN)NC(=O)[C@@H](Cc2c[nH]c3ccccc23)NC(=O)[C@H](Cc2ccc(O)cc2)NC(=O)[C@@H](NC(=O)[C@H](N)Cc2ccc3ccccc3c2)CSSC[C@@H](C(=O)N[C@H](C(N)=O)[C@@H](C)O)NC1=O [BIM-23014C, reference compound]
FBW/IBW = Final Body Weight/Initial Body Weight (Table 3, 2 μg/inj. s.c., QDO5, b.i.d.): 1.00
FBW/IBW = Final Body Weight/Initial Body Weight (Table 3, 10 μg/inj. s.c., QDO5, b.i.d.): 0.99
FBW/IBW = Final Body Weight/Initial Body Weight (Table 3, 50 μg/inj. s.c., QDO5, b.i.d.): 0.98

CC(C)C[C@H](NC(=O)[C@@H](Cc1ccccc1)NC(=O)[C@H](Cc1ccc(O)cc1)NC(=O)[C@H](CO)NC(=O)[C@H](Cc1c[nH]c2ccccc12)NC(=O)[C@H](Cc1c[nH]cn1)NC(=O)[C@@H]1CCC(=O)N1)C(=O)N[C@@H](CCCNC(=N)N)C(=O)N1CCC[C@H]1C(=O)NCC(N)=O [BIM-21006, reference compound]
FBW/IBW = Final Body Weight/Initial Body Weight [1]: 0.99

CC(=O)N[C@H](Cc1ccc2ccccc2c1)C(=O)N[C@H](Cc1ccccc1)C(=O)N[C@H](Cc1ccccc1)C(=O)N[C@@H](CO)C(=O)N[C@@H](Cc1ccc(O)cc1)C(=O)N[C@H](CCCCNCc1ccccc1)C(=O)N[C@@H](Cc1ccccc1)C(=O)N[C@@H](CCCNC(=N)N)C(=O)N1CCC[C@H]1C(=O)N[C@H](C)C(N)=O [BIM-21025] (HELM PEPTIDE1{[ac].[O=C([C@@H](Cc1ccc2ccccc2c1)N[*:1])[*:2]].[dF].[dF].S.Y.[O=C([C@@H](CCCCNCc1ccccc1)N[*:1])[*:2]].F.R.P.[dA].[am]}$$$$V2.0)
FBW/IBW = Final Body Weight/Initial Body Weight (Table 3, 25 μg/inj. s.c., QDO5): 0.97

CC(=O)N[C@H](Cc1ccc2ccccc2c1)C(=O)N[C@H](Cc1ccccc1)C(=O)N[C@H](Cc1ccccc1)C(=O)N[C@@H](CO)C(=O)N[C@@H](Cc1ccc(O)cc1)C(=O)N[C@H](CCCCNC1CCCC1)C(=O)N[C@@H](Cc1ccccc1)C(=O)N[C@@H](CCCCNC1CCCC1)C(=O)N1CCC[C@H]1C(=O)N[C@H](C)C(N)=O [BIM-21026] (Ac-[d2Nal][dF][dF]SY[X1]F[X2]P[dA]-NH2)
FBW/IBW = Final Body Weight/Initial Body Weight (Table 3, 25 μg/inj. s.c., QDO5): 1.01

CC(=O)N[C@H](Cc1ccc2ccccc2c1)C(=O)N[C@H](Cc1ccccc1)C(=O)N[C@H](Cc1ccccc1)C(=O)N[C@@H](CO)C(=O)N[C@@H](Cc1ccc(O)cc1)C(=O)N[C@H](CCCNC(=N)N)C(=O)N[C@@H](Cc1ccccc1)C(=O)N[C@@H](CCCNC(=N)N)C(=O)N1CCC[C@H]1C(=O)N[C@H](C)C(N)=O [BIM-21011] (HELM PEPTIDE1{[ac].[O=C([C@@H](Cc1ccc2ccccc2c1)N[*:1])[*:2]].[dF].[dF].S.Y.[dR].F.R.P.[dA].[am]}$$$$V2.0)
FBW/IBW = Final Body Weight/Initial Body Weight (Table 2, 1 μg/inj. s.c., QDO5): 0.98
FBW/IBW = Final Body Weight/Initial Body Weight (Table 2, 10 μg/inj. s.c., QDO5): 0.99
FBW/IBW = Final Body Weight/Initial Body Weight (Table 2, 15 μg/inj. s.c., QDO5): 0.99

CC(=O)N[C@H](Cc1ccc2ccccc2c1)C(=O)N[C@H](Cc1ccc(Cl)cc1)C(=O)N[C@H](Cc1ccccc1)C(=O)N[C@@H](CO)C(=O)N[C@@H](Cc1ccc(O)cc1)C(=O)N[C@H](CCCNC(=N)N)C(=O)N[C@@H](Cc1ccccc1)C(=O)N[C@@H](CCCNC(=N)N)C(=O)N1CCC[C@H]1C(=O)N[C@H](C)C(N)=O [BIM-21009] (HELM PEPTIDE1{[ac].[O=C([C@@H](Cc1ccc2ccccc2c1)N[*:1])[*:2]].[O=C([C@@H](Cc1ccc(Cl)cc1)N[*:1])[*:2]].[dF].S.Y.[dR].F.R.P.[dA].[am]}$$$$V2.0)
FBW/IBW = Final Body Weight/Initial Body Weight (Table 2, 1 μg/inj. s.c., QDO5): 0.98
FBW/IBW = Final Body Weight/Initial Body Weight (Table 2, 10 μg/inj. s.c., QDO5): 0.99

CC(=O)N[C@H](Cc1ccc2ccccc2c1)C(=O)N[C@H](Cc1ccccc1)C(=O)N[C@H](Cc1ccccc1)C(=O)N[C@@H](CO)C(=O)N[C@@H](Cc1ccccc1)C(=O)N[C@H](CCCNC(=N)N)C(=O)N[C@@H](CC(C)C)C(=O)N[C@@H](CCCNC(=N)N)C(=O)N1CCC[C@H]1C(=O)N[C@H](C)C(N)=O [BIM-21024] (HELM PEPTIDE1{[ac].[O=C([C@@H](Cc1ccc2ccccc2c1)N[*:1])[*:2]].[dF].[dF].S.F.[dR].L.R.P.[dA].[am]}$$$$V2.0)
FBW/IBW = Final Body Weight/Initial Body Weight (Table 3, 25 μg/inj. s.c., QDO5): 1.00
